Reference: ChEMBL document CHEMBL1137723, “Non-imidazole histamine H3 ligands, part IV: SAR of 1-[2-thiazol-5-yl-(2-aminoethyl)]-4-n-propylpiperazine derivatives” (Eur J Med Chem, 2009)

Key:
[1] = target: Histamine H3 receptor (Cavia porcellus, UniProt Q9JI35); assay: Antagonist activity at histamine H3 receptor in guinea pig jejunum assessed as electrically evoked contractions; type: functional, tissue-based; settings: read-out: pA2 (converted)
[2] = target: Histamine H1 receptor (Cavia porcellus, UniProt P31389); assay: Antagonist activity at histamine H1 receptor in guinea pig ileum assessed as histamine-induced contractions; type: functional, tissue-based; settings: read-out: pA2 (converted)
Sequence of Histamine H1 receptor (P31389 whole entry): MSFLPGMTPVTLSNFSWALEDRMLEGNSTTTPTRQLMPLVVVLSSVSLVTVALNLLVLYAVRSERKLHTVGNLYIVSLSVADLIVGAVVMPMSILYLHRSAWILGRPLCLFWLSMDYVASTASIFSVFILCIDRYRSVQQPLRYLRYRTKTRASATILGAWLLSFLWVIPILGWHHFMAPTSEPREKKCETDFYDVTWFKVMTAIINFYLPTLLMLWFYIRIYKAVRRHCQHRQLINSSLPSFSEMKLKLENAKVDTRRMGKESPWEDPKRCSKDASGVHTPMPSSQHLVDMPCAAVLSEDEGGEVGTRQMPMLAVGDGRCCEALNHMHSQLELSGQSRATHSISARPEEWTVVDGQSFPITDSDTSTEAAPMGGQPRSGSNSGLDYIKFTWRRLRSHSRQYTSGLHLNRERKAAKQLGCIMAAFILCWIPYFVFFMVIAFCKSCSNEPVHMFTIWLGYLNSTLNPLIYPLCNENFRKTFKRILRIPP

Sequence of Histamine H3 receptor (Q9JI35 whole entry): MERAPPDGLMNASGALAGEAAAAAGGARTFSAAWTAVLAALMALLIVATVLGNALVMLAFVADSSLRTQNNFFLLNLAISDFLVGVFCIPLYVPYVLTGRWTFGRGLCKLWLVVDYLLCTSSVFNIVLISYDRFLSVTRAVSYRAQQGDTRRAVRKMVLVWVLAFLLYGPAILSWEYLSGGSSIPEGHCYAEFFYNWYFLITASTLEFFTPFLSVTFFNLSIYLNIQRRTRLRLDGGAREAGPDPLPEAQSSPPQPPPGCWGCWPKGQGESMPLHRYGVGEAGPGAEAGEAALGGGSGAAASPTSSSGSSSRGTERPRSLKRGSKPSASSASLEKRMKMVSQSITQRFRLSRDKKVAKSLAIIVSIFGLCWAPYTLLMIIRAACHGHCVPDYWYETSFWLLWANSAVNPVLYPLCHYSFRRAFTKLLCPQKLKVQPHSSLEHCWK

Kb [1]	Kb [2]	Structure (SMILES)
79.4 nM	–	C=CCN1CCN(c2nc3ccccc3s2)CC1
64.6 nM	–	CCCN1CCN(c2ncc(CCN)s2)CC1
17.4 nM	> 100000 nM	CCCN1CCN(c2ncc(CCN(C)Cc3ccccc3)s2)CC1
5.37 nM	> 100000 nM	CCCN1CCN(c2ncc(CCN(C)CCCc3ccccc3)s2)CC1
56.2 nM	–	CCCN1CCN(c2ncc(CCN(C)CCCCCc3ccccc3)s2)CC1
117 nM	–	CCCN1CCN(c2ncc(CCNC=O)s2)CC1
63.1 nM	–	CCCN1CCN(c2ncc(CCNC)s2)CC1
55 nM	–	CCCN1CCN(c2ncc(CCN(C)C=O)s2)CC1
16.6 nM	> 100000 nM	CCCN1CCN(c2ncc(CCN(C)C)s2)CC1
95.5 nM	–	CCCCC(=O)N(C)CCc1cnc(N2CCN(CCC)CC2)s1
89.1 nM	–	CCCCCN(C)CCc1cnc(N2CCN(CCC)CC2)s1
29.5 nM	> 100000 nM	CCCN(C)CCc1cnc(N2CCN(CCC)CC2)s1
43.7 nM	–	CCCN1CCN(c2ncc(CCN(C)C(=O)CC)s2)CC1

Structure (SMILES)	Kb [1]	Kb [2]
CCCN1CCN(c2nc3cnccc3[nH]2)CC1	56.2 nM	–
CCCN1CCN(c2nc3cnccc3o2)CC1	126 nM	–
CCCN1CCN(c2nc3ccccc3s2)CC1	69.2 nM	–
S=C(NC1CCCCC1)N1CCC(c2cnc[nH]2)CC1 [THIOPERAMIDE]	0.871 nM	–
